This is an account of results in article PMC5172606 (Archives of biochemistry and biophysics, 2016).

The experiment addresses T1, human soluble epoxide hydrolase (sEH) (Homo sapiens, UniProt P34913).
T1 sequence (P34913 1-555): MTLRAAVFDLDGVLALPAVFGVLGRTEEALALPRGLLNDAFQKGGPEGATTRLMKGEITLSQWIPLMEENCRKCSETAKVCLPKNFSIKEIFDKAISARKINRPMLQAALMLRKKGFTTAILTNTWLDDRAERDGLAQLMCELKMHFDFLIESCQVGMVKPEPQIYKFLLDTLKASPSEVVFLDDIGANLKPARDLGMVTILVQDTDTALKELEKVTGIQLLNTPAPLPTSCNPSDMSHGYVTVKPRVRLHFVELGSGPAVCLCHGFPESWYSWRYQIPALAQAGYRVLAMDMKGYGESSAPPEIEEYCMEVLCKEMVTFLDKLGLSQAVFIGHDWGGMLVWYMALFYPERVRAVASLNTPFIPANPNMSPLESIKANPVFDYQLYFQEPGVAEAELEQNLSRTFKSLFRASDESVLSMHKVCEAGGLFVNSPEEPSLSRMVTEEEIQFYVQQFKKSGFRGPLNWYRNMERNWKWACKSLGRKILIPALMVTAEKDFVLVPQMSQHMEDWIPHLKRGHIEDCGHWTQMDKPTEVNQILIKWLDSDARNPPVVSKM
The experiment can be described thus: radiometric assay with [3H]-tDPPO substrate. The class given is biochemical.

Substance UC2389 gave an IC50 of 20 ± 0.5 nM.

The IC50 is the concentration at which inhibition is half-maximal.
